Values of other authors as cited in article PMC7340670, “Phase I study of TAS-115, a novel oral multi-kinase inhibitor, in patients with advanced solid tumors” (Investigational New Drugs, 2019).

How the values were obtained:
circulating sMET = tested on: circulating sMET; parameters: method as in PMID 21606412, PMID 21156020, PMID 24687921; conditions: previous clinical studies; cited from earlier work
[1] = tested on: patients with solid tumours; parameters: method as in PMID 21606412; conditions: phase I study for solid tumours; cited from earlier work

Molecule	levels of circulating sMET (circulating sMET)	TRAE decreased appetite [1]	TRAE diarrhea [1]	TRAE fatigue [1]	TRAE nausea [1]	TRAEs neutropenia, anemia, hypophosphatemia, and thrombocytopenia [1]
onartuzumab: agent of a previous clinical study in which increased circulating sMET was reported (ref 21)	Increased levels					
rilotumumab: agent of a previous clinical study in which increased circulating sMET was reported (ref 20)	Increased levels					
COc1cc2nccc(Oc3ccc(NC(=O)C4(C(=O)Nc5ccc(F)cc5)CC4)cc3)c2cc1OC [cabozantinib]	Increased levels	48%	57%	55%	43%	not observed
